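Assay format: 96-well plates, 48-hour exposure. TGI: total growth inhibition.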
Columns and labels:
Experiment in all cases: NCI-60 cell line screen, 48 h
A498 renal = tested on: A498 renal
COLO 205 colon = tested on: COLO 205 colon
LOX IMVI melanoma = tested on: LOX IMVI melanoma
MDA-MB-231 breast = tested on: MDA-MB-231 breast
MDA-MB-435 = tested on: MDA-MB-435
NCI-H226 lung = tested on: NCI-H226 lung
NCI-H522 lung = tested on: NCI-H522 lung
RPMI-8226 leukemia = tested on: RPMI-8226 leukemia
SK-MEL-5 melanoma = tested on: SK-MEL-5 melanoma
SN12C renal = tested on: SN12C renal
SNB-19 CNS = tested on: SNB-19 CNS
U251 CNS = tested on: U251 CNS
UO-31 renal = tested on: UO-31 renal
HL-60(TB) leukemia = tested on: HL-60(TB) leukemia
MDA-N = tested on: MDA-N

Row | SMILES | TGI (A498 renal) | TGI (COLO 205 colon) | TGI (LOX IMVI melanoma) | TGI (MDA-MB-231 breast) | TGI (MDA-MB-435) | TGI (NCI-H226 lung) | TGI (NCI-H522 lung) | TGI (RPMI-8226 leukemia) | TGI (SK-MEL-5 melanoma) | TGI (SN12C renal) | TGI (SNB-19 CNS) | TGI (U251 CNS) | TGI (UO-31 renal) | TGI (HL-60(TB) leukemia) | TGI (MDA-N)
1 | CC12CN(CC[N+](C)(C)C)CC1(C)C1CCC2O1 (stereo not drawn) | > 100 µM | > 100 µM | > 100 µM | > 100 µM | > 100 µM | > 100 µM | > 100 µM | > 100 µM | > 100 µM | > 100 µM | > 100 µM | > 100 µM | > 100 µM | – | –
2 | COC(=O)CCc1ccc2c(c1)CCC2 | – | > 100 µM | > 100 µM | > 100 µM | > 100 µM | > 100 µM | > 100 µM | > 100 µM | > 100 µM | > 100 µM | > 100 µM | > 100 µM | > 100 µM | > 100 µM | > 100 µM
3 | CS(=O)(=O)c1nc(N)nc2nc[nH]c12 | > 100 µM | > 100 µM | > 100 µM | – | – | > 100 µM | > 100 µM | > 100 µM | > 100 µM | > 100 µM | > 100 µM | > 100 µM | > 100 µM | > 100 µM | –
4 | COC1Cc2c(C)c(OC(C)=O)c3cccnc3c2O1 (stereo not drawn) | > 100 µM | > 100 µM | – | > 100 µM | 32.6 µM | > 100 µM | 13.6 µM | > 100 µM | 29.2 µM | 37.8 µM | > 100 µM | > 100 µM | 27.3 µM | 25.3 µM | 46.3 µM
5 | C1COC2SC3=C(SC(=C4SC5=C(SCCS5)S4)S3)SC2O1 (stereo not drawn) | > 100 µM | > 100 µM | – | > 100 µM | > 100 µM | > 100 µM | > 100 µM | – | > 100 µM | > 100 µM | > 100 µM | > 100 µM | > 100 µM | > 100 µM | –
6 | CCOC(=O)CSc1nc(-c2ccc(OC)cc2)c(C#N)c(=O)[nH]1 | > 100 µM | > 100 µM | – | > 100 µM | > 100 µM | > 100 µM | > 100 µM | > 100 µM | > 100 µM | > 100 µM | > 100 µM | > 100 µM | > 100 µM | > 100 µM | –
7 | COC(=O)[C@@H]1O[C@]12C(CO[Si](C)(C)C(C)(C)C)OC(n1ccc(=O)[nH]c1=O)C2O[Si](C)(C)C(C)(C)C (stereo partly drawn) | – | 69.7 µM | 42.5 µM | > 100 µM | 58.7 µM | 30.7 µM | 45.4 µM | > 100 µM | 51.6 µM | 85.7 µM | > 100 µM | > 100 µM | 45.5 µM | 62.6 µM | > 100 µM
8 | CC(C)[Si](OC12CCC(CC1O)CC2C(=O)O)(C(C)C)C(C)C (stereo not drawn) | 31 µM | 59.2 µM | – | 38 µM | 31.8 µM | 31.6 µM | – | 58.3 µM | 51.6 µM | > 100 µM | 29.1 µM | 31.4 µM | 26 µM | 6.87 µM | 39.7 µM
9 | CC(=O)O[C@H]1C(=O)[C@@]2(C)C(C(OC(=O)c3ccccc3)[C@]3(O)CC(OC(=O)C(O)C(NC(=O)c4ccccc4)c4ccc(F)cc4)C(C)=C1C3(C)C)[C@]1(OC(C)=O)CO[C@@H]1C[C@@H]2O (stereo partly drawn) | – | 0.0755 µM | > 10 µM | 0.608 µM | – | – | 1.34 µM | 2.09 µM | > 3.32 µM | > 10 µM | > 10 µM | > 10 µM | > 10 µM | – | –
10 | CC(C#N)c1cn(S(=O)(=O)c2ccccc2)c2ccccc12 (stereo not drawn) | – | > 100 µM | – | – | – | > 100 µM | 94.9 µM | > 100 µM | 36.9 µM | – | > 100 µM | > 100 µM | 62.4 µM | 88.1 µM | –
11 | COC(=O)/C=C\c1ccc2c(c1)CC1(C2)Cc2ccc(/C=C/C(=O)OC)cc2C1 (stereo not drawn) | – | > 31.6 µM | > 31.6 µM | > 31.6 µM | > 31.6 µM | > 31.6 µM | > 31.6 µM | > 31.6 µM | > 31.6 µM | > 31.6 µM | > 100 µM | > 31.6 µM | > 31.6 µM | > 31.6 µM | > 31.6 µM
12 | CCc1cc(-c2nsc(=O)o2)c(S(=O)(=O)CC)s1 | > 100 µM | > 100 µM | > 100 µM | – | > 100 µM | > 100 µM | 57.2 µM | > 100 µM | > 100 µM | > 100 µM | > 100 µM | > 100 µM | > 100 µM | 12 µM | > 100 µM
13 | C[C@]12CCC3c4ccc(OC(=O)c5ccccc5)cc4CC[C@H]3C1CC[C@@H]2OC(=O)C12OC1CCC2=O (stereo partly drawn) | 14.2 µM | 7.49 µM | 8.13 µM | – | – | 34.5 µM | 10.8 µM | 14.8 µM | 9.49 µM | 11.9 µM | 37 µM | 17.4 µM | 11.9 µM | 4.56 µM | –
14 | CCOC(=O)c1ccc2c(c1)nc1n2C(c2c(F)cccc2F)SC1 (stereo not drawn) | > 100 µM | 28.5 µM | 58.6 µM | > 100 µM | > 100 µM | 34.6 µM | – | > 100 µM | 26.1 µM | > 100 µM | 83.5 µM | > 100 µM | > 100 µM | > 100 µM | –
15 | CCN1C(C)=NC2C(=O)c3ccccc3C(=O)C21 (stereo not drawn) | > 100 µM | > 100 µM | > 100 µM | – | – | > 100 µM | – | > 100 µM | 68 µM | > 100 µM | > 100 µM | > 100 µM | > 100 µM | > 100 µM | –
16 | O=C1O/C(=C\c2ccc(O)c(Br)c2)C(c2ccc(O)cc2)=C1Cl | 77.7 µM | > 100 µM | > 100 µM | – | > 100 µM | – | 68.6 µM | 34 µM | 53.5 µM | – | > 100 µM | > 100 µM | > 100 µM | > 100 µM | 74.5 µM
17 | CCOC(=O)Cc1ccc(Nc2nc3cc(C(F)(F)F)ccc3nc2C(=O)OCC)cc1 | > 100 µM | > 100 µM | > 100 µM | – | > 100 µM | 91.6 µM | > 100 µM | – | > 100 µM | > 100 µM | > 100 µM | > 100 µM | > 100 µM | > 100 µM | > 100 µM
